Test [1] relates to MRSA N315. The test is described as follows: MIC assay and FICI synergy determination (checkerboard). The test is classed as cell-based, Staphylococcus aureus. Conditions: for MIC: Staphylococcus aureus, MRSA, read-out: MIC in MRSA N315. On the procedure:
Microbiological Studies: MRSA N315 was a gift from Dr. Steven Gill, University of Rochester, Rochester, NY, USA. S. aureus ATCC 29213 was acquired from the American Type Culture Collection. De-identified clinical MRSA isolates were selected at random from the clinical isolate strain bank at Barnes-Jewish Hospital, St. Louis, MO, USA. Minimal inhibitory concentration (MIC) assays for inhibition of growth were performed following the recommendations of the Clinical and Laboratory Standards Institute (CLSI)^43. Briefly, 23 antibacterial compounds (Supplemental Table 1) were selected based on coverage of all major drug classes, including three compounds not classified as antibiotics for human use, but with known antibacterial properties. Compounds were dissolved in dimethyl sulfoxide (DMSO) to a stock concentration of 50 mg/ml. Exceptions: Sulfometuron at 20 mg/ml in DMSO; Tobramycin, D-cycloserine, and colistin at 50 mg/ml in H2O and filtered at 2 μm. The 23 compounds were formulated into all 253 possible unique pairwise combinations at fixed ratios and at 100× concentrations in solvent. To increase the range of concentrations assayed for possible synergistic or antagonistic drug interactions (>2,000-fold), the drug stocks were arrayed into threefold dilution series down eight rows in 96-well Costar master drug plates, using a BioMek FX robotic liquid handler (Beckman Coulter, Inc.). Drugs were then mixed 1:100 into 96-well plates containing 200 μl/well of cation-adjusted Mueller-Hinton broth (CAMHB). All drug susceptibility assay wells were inoculated with ˜1 μl of mid-log phase bacterial culture at 0.5 McFarland standard (˜2×10^8 CFU/ml) and grown at 37° C. for 24 h. Endpoint growth at 37° C. after 24 h was determined by optical density at 600 nm ≥0.1 using a Synergy H1 reader (BioTek, Inc.).
Synergy of antibiotic combinations was determined using the fractional inhibitory concentration index (FICI) method ^57,58. By this method, the MIC of the antibiotic compound in combination is divided by the MIC of the compound alone, yielding the fractional contribution of each drug component in the combination. Quotients for all in a combination are summed and drug interactions scored using the formula: FICI=(MIC Acomb A B C)/MICagent A+(MIC Bcomb A B C)/MICagent B+(MIC Ccomb A B C)/MICagentC Select pairwise combinations against MRSA were then combined with each of the 21 remaining single drugs to make triple combinations, formulated and tested in identical fashion to the double combinations. Synergy of combinations was confirmed via triplicate measurements of drug conditions at the MIC. Based on its high synergy against MRSA N315 in the sparse screening, ME/PI/TZ and its constituents were selected for further characterization. Final susceptibility testing of ME/PI/TZ and its components was performed using twofold dilution from 128 to 2 μg/ml for each component

Test [2] has as its system MRSA N315. The test is described as follows: Neutropenic mouse peritonitis model of MRSA infection. It is filed as in vivo, mice. An excerpt: In vivo mouse model of MRSA infection: Animals. Outbred ICR female mice (6-8 weeks old, 17-25 g body weight; Harlan Laboratories, Inc., Indianapolis, IN, USA) were used. Mice were given Teklad 2019 Extruded Rodent Diet (Harlan Laboratories, Inc., Indianapolis, IN, USA) and water ad libitum. Mice were maintained in polycarbonate shoebox cages containing corncob (The Andersons, Inc., Maumee, OH, USA) and Alpha-dri (Shepherd Specialty Papers, Inc., Richland, MI, USA) bedding under 12-h light/12-h dark cycle at 22±1° C. All procedures involving animals were approved by the University of Notre Dame Institutional Animal Care and Use Committee.
Neutropenic mouse peritonitis model of MRSA infection. Doses of cyclophosphamide (100 μl of 50 mg/ml in 0.9% saline corresponding to 200 mg/kg; Alfa Aesar, Ward Hill, MA, USA) were given intraperitoneally (IP) at 4 days and 1 day prior to infection. The S. strain N315 was streaked onto Brain-Heart Infusion (BHI; Becton Dickson and Company, Sparks, MD, USA) agar and grown overnight at 36° C. The MRSA N315 bacterial inoculum was adjusted to approximately 1×10^8 CFU/ml (corresponding to OD540=0.5), then diluted to give 2×10^7CFU/ml. A 10% porcine mucin (Sigma-Aldrich, St. Louis, MO, USA) suspension was prepared and adjusted to pH 7. Immediately prior to infection, the bacterial inocula were diluted 1:1 with 10% mucin to a final concentration of 1×10^7CFU/ml in 5% mucin. The mice were then infected IP with 0.5 ml of this inoculum. In vivo dosing of compounds in mice was compared with mean or range peak human plasma concentrations of studied β-lactams^44,46,47,62,63.
Antibiotic preparation. Meropenem was obtained from AK Scientific, Inc. (Union City, CA, USA), piperacillin and tazobactam were obtained from Sigma-Aldrich Co. (St. Louis, MO, USA). Linezolid (CAS 165800-03-3) was obtained from AmplaChem (Carmel, IN, USA). Antibiotics were dissolved at a concentration of 16.67 mg/ml in 30% DMSO/30% propylene glycol/40% water. Linezolid was used as positive control and was prepared at 7.5 mg/ml. Vehicle (30% DMSO/30% propylene glycol/40% water) was included as negative control. The dosing formulations were sterilized by passing through 0.2 μm filter prior to injection.
Bacterial isolation from blood. Blood samples were checked for bacterial growth by plating and liquid culture. Whole blood (100 μl, three samples per group) was spread onto Brain-Heart Infusion (BHI) agar plates and incubated at 36° C. overnight. Colonies were counted and three colonies were selected, grown overnight in liquid BHI culture at 36° C., then mixed 1:1 with 30% LB-glycerol and stored at −80° C. The remaining three blood samples of each group (50 μl) was added to 5 ml BHI broth and incubated overnight at 36° C. When growth was noted, cultures were mixed 1:1 with 30% LB-glycerol and stored at −80° C.
Statistical Analyses: Data for minimal inhibitory concentrations (MICs) are derived from triplicate measurements. Adaptation data are taken from two replicate experiments for each drug combination condition. Data for qRT-PCR expression profiling are derived from three replicate experiments taken from three biological replicates each, with standard error of measurement calculated. Mice were treated in groups of six, and growth determination of bacteria determined via plate and broth culture in triplicate. Fisher's Exact test with Bonferroni correction was used for 8 independent tests (comparing each treatment to 610 vehicle).

In test [3] the test system is MRSA N315. The test is described as follows: Adaptation and cross-resistance assays (11-day passage). The test is classed as cell-based, Staphylococcus aureus. Conditions: MRSA N315 after prior exposure/adaptation to meropenem. On the procedure:
Adaptation and Cross-resistance Assays: 414 MRSA N315 was grown in 150 μl/well of CAMHB with constant shaking at 37° C. and passaged over 11 days in identical 96-well plates containing replicate threefold dilutions of ME/PI/TZ, ME/PI, ME/TZ, PI/TZ, ME, PI, and TZ. Top concentrations of drug combinations were 33.3 μg/ml for each component, while top concentrations for single drugs was 100 μg/ml. To test for cell viability, at the end of the assay on day 11, all wells from the plate were pinned with a sterile 96-pin replicator and transferred to CAMHB only. After passage, plates were filled 1:1 with 30% CAMHB/glycerol and frozen at −80° C. for later analysis.
Growth rate of isolates over passages in each condition was determined by linear best-fit of logarithm-converted exponential growth phase. […] Adapted isolates were retrospectively chosen from each combination or single compound in wells showing an increase in MIC or growth rate, frozen isolates were streaked out on agar plates to obtain single colonies, re-grown in broth conditions identical to those in which they grew originally, and then re-inoculated in sterile 96-well plates identical to the original 11-day 431 plates.

Where two headings read alike, the source gives them in different places.

Broadly, the MIC is the smallest concentration in the dilution series that meets the test's criterion for growth inhibition. Regarding `CN[C@H](CC(C)C)C(=O)N[C@H]1C(=O)N[C@@H](CC(N)=O)C(=O)N[C@H]2C(=O)N[C@H]3C(=O)N[C@H](C(=O)N[C@H](C(=O)O)c4cc(O)cc(O)c4-c4cc3ccc4O)[C@H](O)c3ccc(c(Cl)c3)Oc3cc2cc(c3O[C@@H]2O[C@H](CO)[C@@H](O)[C@H](O)[C@H]2O[C@H]2C[C@](C)(N)[C@H](O)[C@H](C)O2)Oc2ccc(cc2Cl)[C@H]1O` [Vancomycin], the MIC with MRSA N315 [1] came out at 0.4 µg/mL.
Regarding Colistin, in the test with MRSA N315 [1] (single compounds), the “MIC in MRSA N315” value came out at 500 µg/mL.
With `CC[C@H]1OC(=O)[C@H](C)[C@@H](O[C@H]2C[C@@](C)(OC)[C@@H](O)[C@H](C)O2)[C@H](C)[C@@H](O[C@@H]2O[C@H](C)C[C@H](N(C)C)[C@H]2O)[C@](C)(O)C[C@@H](C)CN(C)[C@H](C)[C@@H](O)[C@]1(C)O` [Azithromycin], the minimum inhibitory concentration (MIC) in the test on MRSA N315 [1] (single compounds) is greater than 200 µg/mL.
Still for that read-out and setting: in the case of `CO/N=C(\C(=O)N[C@@H]1C(=O)N2C(C(=O)[O-])=C(C[N+]3(C)CCCC3)CS[C@H]12)c1csc(N)n1` [Cefepime] it was 100 µg/mL.
As for `Cc1cc(C)nc(NC(=O)NS(=O)(=O)c2ccccc2C(=O)O)n1` [Sulfometuron], the MIC in the test with MRSA N315 [1] is greater than 200 µg/mL.
Bleomycin: the “MIC in MRSA N315” value in the test with MRSA N315 [1] (single compounds) is greater than 500 µg/mL.
With `CO[C@H]1/C=C/O[C@@]2(C)Oc3c(C)c(O)c4c(O)c(c(/C=N/N5CCN(C)CC5)c(O)c4c3C2=O)NC(=O)/C(C)=C\C=C\[C@H](C)[C@H](O)[C@@H](C)[C@@H](O)[C@@H](C)[C@H](OC(C)=O)[C@@H]1C` [Rifampin], the MIC in the test on MRSA N315 [1] (single compounds) is 0.4 µg/mL.
Take `CC(=O)NC[C@H]1CN(c2ccc(N3CCOCC3)c(F)c2)C(=O)O1` [Linezolid]: the MIC with MRSA N315 [1] (single compounds) was determined as 3.7 µg/mL. Further, in the test on MRSA N315 [2] (30 mg/kg), the “bacteria in blood taken at 11 h post-infection” value is “zero plated colonies and no growth in liquid cultures”. Besides, the “Result (Alive/Dead)” value in the test on MRSA N315 [2] (30 mg/kg every 8 hrs SC, 6 doses, one line per mouse) is on record as “Alive”. Also, the “Result (survivors per group)” value in the test with MRSA N315 [2] (30 mg/kg every 8 hrs SC, 6 doses, six days post-infection) is recorded as 6/6. Moreover, the “survival for six days post-infection” value in the test on MRSA N315 [2] (30 mg/kg, n=6/group) is “All mice”. For the same compound, the “p versus vehicle (Fisher's exact test)” value in the test with MRSA N315 [2] (survival, n=6/group) is given as 0.02.
In the case of `CCC[C@@H]1C[C@@H](C(=O)N[C@@H]([C@H]2O[C@H](SC)[C@H](O)[C@@H](O)[C@H]2O)[C@H](C)Cl)N(C)C1` [Clindamycin], the MIC with MRSA N315 [1] (single compounds) was greater than 500 µg/mL.
Still for that read-out and setting: in the case of `Cc1ccc(C)c(OCCCC(C)(C)C(=O)O)c1` [Gemfibrozil] it was greater than 200 µg/mL; in that of `C/C(=C\C(=O)OCCCCCCCCC(=O)O)C[C@@H]1OC[C@H](C[C@@H]2O[C@H]2[C@@H](C)[C@H](C)O)[C@@H](O)[C@H]1O` [Mupirocin], 0.4 µg/mL.
`COc1cc(Cc2cnc(N)nc2N)cc(OC)c1OC` [Trimethoprim]: in the test on MRSA N315 [1] (single compounds), the MIC was found to be 6.2 µg/mL.
Consider `C[C@H]1COc2c(N3CCN(C)CC3)c(F)cc3c(=O)c(C(=O)O)cn1c23` [Levofloxacin], for which the MIC in the test on MRSA N315 [1] (single compounds) was 0.4 µg/mL.
For the compound `CC1(C)S[C@@H]2[C@H](NC(=O)[C@H](N)c3ccc(O)cc3)C(=O)N2[C@H]1C(=O)O` [amoxicillin], in the test on MRSA N315 [3], the “collateral effect on susceptibility” value is listed as “sensitizing”.
Take `O=C(N[C@H](CO)[C@H](O)c1ccc([N+](=O)[O-])cc1)C(Cl)Cl` [Chloramphenicol]: the MIC with MRSA N315 [1] (single compounds) amounted to 11.1 µg/mL.
`N[C@@H]1CONC1=O` [D-Cycloserine]: the “MIC in MRSA N315” value with MRSA N315 [1] (single compounds) was determined as 56 µg/mL.
With `Cc1cc(NS(=O)(=O)c2ccc(N)cc2)no1` [Sulfamethoxazole], the MIC in the test on MRSA N315 [1] (single compounds) came out at 100 µg/mL.
`CN(C)c1cc(NC(=O)CNC(C)(C)C)c(O)c2c1C[C@H]1C[C@H]3[C@H](N(C)C)C(O)=C(C(N)=O)C(=O)[C@@]3(O)C(O)=C1C2=O` [Tigecycline]: the minimum inhibitory concentration (MIC) with MRSA N315 [1] turned out to be 0.4 µg/mL.
In the case of `CCN(CC)C(=S)SSC(=S)N(CC)CC` [Disulfiram], the MIC with MRSA N315 [1] is 11.1 µg/mL.
As for `NC[C@H]1O[C@H](O[C@H]2[C@H](O)[C@@H](O[C@H]3O[C@H](CO)[C@@H](O)[C@H](N)[C@H]3O)[C@H](N)C[C@@H]2N)[C@H](N)C[C@@H]1O` [Tobramycin], in the test with MRSA N315 [1] (single compounds), the minimal inhibitory concentration (MIC) is greater than 500 µg/mL.
Still for that read-out and setting: in the case of `C[C@H]1[C@H](NC(=O)/C(=N\OC(C)(C)C(=O)O)c2csc(N)n2)C(=O)N1S(=O)(=O)O` [Aztreonam] it was greater than 500 µg/mL.

(Values after US20230293488A1, “COMPOSITIONS AND METHODS OF USE OF ANTIBACTERIAL DRUG COMBINATIONS” (priority 2015, published 2023).)
